Assay results: US8957087B2, “Heterocyclic substituted acardite derivate and application thereof” (Jiangsu Provincial Institute of Materia Medica Co., Ltd., priority 2009, dated 2015)
Read-outs that look alike come from different tables or passages of the source. Marks after values point to notes of the source that are not given here.

Key:
Raf-1(truncated) = assay: Raf-1 inhibitor screening by chemoluminescence method; type: biochemical; details: Final concentration 1 x 1.0*10^−5 mol/ml
Excerpt: 1. Inhibitory activity of the compound of the present invention on raf kinase
Raf-1 inhibitor screening by chemoluminescence method
Westernblot electrophoresis apparatus Rotaryshaker
Raf-1(truncated), Magnesium/ATP Cocktail, MEK1 unactive

[1] = system: human umbilical vein endothelial cell HUVEC; assay: Growth of human umbilical vein endothelial cell HUVEC by CCK8 method; type: cell-based; details: Final concentration 1 x 1.0*10^(−5) mol/L
How it was run: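 HUVEC cells were grown in 1640 medium with 10% FBS, and growth was measured by the CCK8 method. OD values of drug and control wells were corrected by subtracting the blank-well OD.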

[2] = system: human lung cancer cell strain A549; assay: MTT assay, inhibition of growth of human lung cancer cell strain A549; type: cell-based
How it was run: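 A549 cells grown in F12 with 10% FBS; growth read by MTT, inhibition rate from blank-corrected OD of drug wells versus control wells.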

[3] = system: Human colon cancer HT-29 transplantable tumor; assay: Human colon cancer HT-29 transplantable tumor in nude mice; details: for Relative tumor reproduction rate T/C (%): HT-29 in nude mice
lung cancer cell A549 = assay: Effects on the adhesive ability of lung cancer cell A549; type: cell-based, human; details: Final concentration 1 x 1.0*10^(−5) mol/L
How it was run: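 A549 cells in 1640 medium with 10% FBS tested for adhesion to gelatin versus poly-lysine (PLL), with CCK8 used as read-out. Inhibition rate derived from the gelatin/PLL adhesion OD ratio of dosed cells relative to the undosed cell group.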

mice S180 sarcoma = assay: Experimental therapeutic action on S180 sarcoma mice; details: for Tumor growth inhibition rate (%): mice S180 sarcoma, 60 mg/kg orally for 9 days
Description: Experimental therapeutic action of the compound in the present invention on S180 sarcoma mice
18-25 g female ICR mice and well grown 7-11 day old mice sarcoma S180 tumor seeds were selected, and the seeds were inoculated into the subcutaneous at the right axillary. After inoculated 24 hours, these mice were randomly divided into cages and orally administrated 60 mg/kg for 9 days. On 10 day, the animals were killed and weighed, and the tumor weights were weighed to calculate average tumor weight in each group, followed by calculating the tumor inhibition rate according to the following formula and T test.

[4] = system: human lung cancer A549 transplantation tumor; type: in vivo; details: BALB/cA nude mice; 60 mg/kg, 6 times every week for 3 weeks; Sorafenib oral 60 mg/kg
How it was run: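 Female BALB/cA nude mice, 35-40 days old, bearing A549 human lung cancer transplants; 6 per treatment group, 12 saline controls. Compound given at 60 mg/kg, 6 times weekly for 3 weeks, then observed one week.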

[5] = system: human umbilical vein endothelial cell HUVEC; assay: Lumen formation ability of HUVEC (Matrigel method); type: cell-based; details: Final concentration 1 x 1.0*10^(−5) mol/L
How it was run: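 HUVEC at passage 3–5, cultured in M199 at 37° C under 5% CO2, were plated on Matrigel with compound. Spontaneous lumen formation was scored as an inhibition rate.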

[6] = system: human liver cancer cell bel-7402 transplantation tumor; type: in vivo; details: BALB/cA nude mice; 60 mg/kg, 6 times every week for 3 weeks; Sorafenib oral 60 mg/kg
How it was run: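 Female BALB/cA nude mice (35–40 days, 18–22 g) bearing Bel-7402 xenografts; 6 mice per treated group, 12 in saline controls. Compound dosed at 60 mg/kg, 6 times weekly for 3 weeks, followed by one week of observation; tumor inhibition rate scored against controls.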

[7] = system: human high-metastic lung cancer cell 95D; assay: Inhibition of human high-metastic lung cancer cell 95D migration (Boyden Chamber Transwell); type: cell-based; details: Final concentration 1 x 1.0*10^(−5) mol/L
How it was run: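 Boyden Transwell migration (8 μm pores) of 95D cells, RPMI-1640 with 10% FBS versus serum-free medium; inhibition rate calculated.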

[8] = system: renal carcinoma cell line GCR-1 transplanted tumor; type: in vivo, BALB/cA nude mice; details: BALB/cA nude mice; 60 mg/kg, 6 times every week for 3 weeks; Sorafenib oral 60 mg/kg
How it was run: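 Female BALB/cA nude mice (18–22 g) bearing GCR-1 renal carcinoma xenografts, 6 per treated group, 12 saline controls. Drug given at 60 mg/kg, 6 times weekly for 3 weeks, then one week of observation; tumor inhibition rate reported.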

[9] = Final concentration 1 x 1.0*10^(−5) mol/L

Row | Compound | Inhibition rate % on raf kinase (Raf-1(truncated)) [%] | Inhibition rate, growth of HUVEC cell [1] [%] | Inhibition rate, growth of human lung cancer cell A549 [2] [%] | Relative tumor reproduction rate T/C (%) ([3]; 60 mg/kg ig 9 times) | Inhibition rate, adhesion ability of human lung cancer cell A549 (lung cancer cell A549) [%] | Tumor growth inhibition rate (%) (mice S180 sarcoma) | Relative tumor reproduction rate T/C (%) on human lung cancer A549 transplantation tumor in nude mice [4] [%] | Inhibition rate, lumen formation ability of HUVEC [5] [%] | Relative tumor reproduction rate T/C (%) on human liver cancer cell bel-7402 transplantation tumor model in nude mice [6] [%] | Inhibition rate, 95D cell strain migration [7] [%] | Relative tumor reproduction rate T/C (%) on human renal carcinoma GCR-1 cell transplanted tumor model in nude mice [8] [%] | Inhibition rate, growth of human lung cancer cell A549 [2, 9] [%] | also measured
1 | COc1ncncc1Oc1ccc(NC(=O)Nc2ccc(F)c(C(F)(F)F)c2)cc1 [Compound 23, N-(4-fluoro-3-(trifluoromethyl)phenyl)-N′-(4-(5-(4-methoxypyrimidinyl)oxy)phenyl)urea] | 89.9 | 17.41 | 55.41 | 39.7 | 77.56 | 51.5 | 17.1 | 97.56 | 17.7 | 85.53 | 9.1 |  | 
2 | O=C(Nc1ccc(Oc2ncnc3cc(F)ccc23)cc1)Nc1ccc(F)c(C(F)(F)F)c1 [Compound 20, N-(4-fluoro-3-(trifluoromethyl)phenyl)-N′-(4-(4-(7 fluoroquinazolinyl)oxy)phenyl)urea] | 87.7 | 7.32 | 88.32 | 40.1 | 95.31 | 54.6 | 12.1 | 88.54 | 17.2 | 89.12 | 13.1 |  | 
3 | N-(4-chloro-3-(trifluoromethyl)phenyl)-N′-(4-(2-(N-methylaminoformoxyl)-4-(7-amino-isoquinolyl)oxy)phenyl)urea [Compound 10] | 3.5 | 14.50 |  | 78.9 | 64.57 | 55.2 | 30.1 | 50.34 | 28.1 | 61.43 | 27.1 | 74.50 | 
4 | CNC(=O)c1nc(Oc2ccc(NC(=O)Nc3ccc(Br)c(C(F)(F)F)c3)cc2)c2ccc(F)cc2n1 [Compound 6, N-(4-bromo-3-(trifluoromethyl)phenyl)-N′-(4-(2-(N-methylaminoformoxyl)-4-(7 fluoroquinazolinyl)oxy)phenyl)urea] | 80.1 | 7.50 |  | 39.58 | 93.59 | 51.2 | 15.9 | 90.55 | 19.5 | 93.71 | 12.5 | 92.50 | 
5 | CNC(=O)c1cc(Oc2ccc(NC(=O)Nc3ccc(F)c(C(F)(F)F)c3)cc2)c(C)[nH]1 [Compound 14, N-(4-fluoro-3-(trifluoromethyl)phenyl)-N′-(4-(2-(N-methylaminoformoxyl)-4-(5-methyl-pyrryl)oxy)phenyl)urea] | 41.3 | 17.25 |  | 40.1 | 67.51 | 18.2 | 32.2 | 67.53 | 36.1 | 57.57 | 31.1 | 67.25 | 
6 | CCc1ccc(NC(=O)Nc2ccc(Oc3ccnc4cc(F)c(C)cc34)cc2)cc1C(F)(F)F [Compound 34, N-(4-ethyl-3-(trifluoromethyl)phenyl)-N′-(4-(4-(6-methyl-7-fluoro-quinolinyl)oxy)phenyl)urea] | 96.2 | 19.52 | 59.52 | 45.9 | 76.54 | 52.6 | 22.3 | 66.52 | 31.5 | 63.65 | 36.1 |  | 
7 | N-(4-chloro-3-(trifluoromethyl)phenyl)-N′-(4-(2-(N-methylaminoformoxyl)-4-(6-methoxyquinolinyl)oxy))phenyl)urea [Compound 1] | 75.0 | 9.20 |  |  | 60.22 | 38.5 | 38.7 | 72.22 | 33.7 | 80.21 | 30.5 | 50.20 | Relative tumor reproduction rate T/C (%) ([3]; 60 mg/kg ig 9 times, 60 mg/kg): 55.42%; Weight (g) d0 ([3]; nude mouse body weight d0, 60 mg/kg): 19.5 ± 1.0 g; Weight (g) d13 ([3]; nude mouse body weight d13, 60 mg/kg ig 9 times): 20.5 ± 1.1 g; RTV ([3]; relative tumor volume, 60 mg/kg ig 9 times): 2.81 ± 1.05; TV d0 ([3]; tumor volume d0, 60 mg/kg): 128 ± 34; TV d13 ([3]; tumor volume d13, 60 mg/kg ig 9 times): 359 ± 108; Tumor weight x ± SD (mice S180 sarcoma; 60 mg/kg ig for 9 days, day 10): 0.99 ± 0.20 g; Weight (g) Start (mice S180 sarcoma; mouse body weight at start, 60 mg/kg ig): 18.7 ± 1.9 g; Weight (g) Final (mice S180 sarcoma; mouse body weight final, 60 mg/kg ig for 9 days): 22.3 ± 1.3 g
